Measured values from the NIST ThermoML archive (doi:10.1016/j.jct.2016.10.023).
± gives the expanded uncertainty stated by the source.

Test: xn = mol fraction of the nth substance listed
Settings: Constant-volume piezometry

## CCCCC [pentane] + CCCO
553.15 K, 10864 kPa, Fluid (supercritical or subcritical phases), x1 = 0.9
  mass density: 311.86 ± 1.6 kg/m3
553.15 K, 11147 kPa, Fluid (supercritical or subcritical phases), x1 = 0.2
  mass density: 390.67 ± 2 kg/m3
553.15 K, 11334 kPa, Fluid (supercritical or subcritical phases), x1 = 0.8
  mass density: 314.89 ± 1.6 kg/m3
553.15 K, 12137 kPa, Fluid (supercritical or subcritical phases), x1 = 0.9
  mass density: 333.53 ± 1.7 kg/m3
553.15 K, 12374 kPa, Fluid (supercritical or subcritical phases), x1 = 0.8
  mass density: 333.35 ± 1.7 kg/m3
553.15 K, 13032 kPa, Fluid (supercritical or subcritical phases), x1 = 0.2
  mass density: 418.04 ± 2.1 kg/m3
553.15 K, 13118 kPa, Fluid (supercritical or subcritical phases), x1 = 0.8
  mass density: 344.85 ± 1.7 kg/m3
553.15 K, 13951 kPa, Fluid (supercritical or subcritical phases), x1 = 0.9
  mass density: 353.59 ± 1.8 kg/m3
553.15 K, 14669 kPa, Fluid (supercritical or subcritical phases), x1 = 0.8
  mass density: 361.39 ± 1.8 kg/m3
553.15 K, 18451 kPa, Fluid (supercritical or subcritical phases), x1 = 0.2
  mass density: 469.6 ± 2.4 kg/m3
553.15 K, 20863 kPa, Fluid (supercritical or subcritical phases), x1 = 0.9
  mass density: 406.66 ± 2 kg/m3
553.15 K, 21933 kPa, Fluid (supercritical or subcritical phases), x1 = 0.8
  mass density: 417.56 ± 2.1 kg/m3
553.15 K, 25921 kPa, Fluid (supercritical or subcritical phases), x1 = 0.2
  mass density: 508.72 ± 2.6 kg/m3
553.15 K, 34331 kPa, Fluid (supercritical or subcritical phases), x1 = 0.8
  mass density: 465.95 ± 2.4 kg/m3
553.15 K, 37494 kPa, Fluid (supercritical or subcritical phases), x1 = 0.2
  mass density: 546.06 ± 2.8 kg/m3
563.15 K, 1429 kPa, Gas, x1 = 0.8
  mass density: 22.48 ± 0.07 kg/m3
563.15 K, 1719 kPa, Gas, x1 = 0.2
  mass density: 24.88 ± 0.08 kg/m3
563.15 K, 2200 kPa, Gas, x1 = 0.8
  mass density: 36.62 ± 0.11 kg/m3
563.15 K, 3253 kPa, Gas, x1 = 0.8
  mass density: 58.3 ± 0.18 kg/m3
563.15 K, 3644 kPa, Gas, x1 = 0.2
  mass density: 52.9 ± 0.16 kg/m3
563.15 K, 3914 kPa, Fluid (supercritical or subcritical phases), x1 = 0.8
  mass density: 73.65 ± 0.37 kg/m3
563.15 K, 4188 kPa, Fluid (supercritical or subcritical phases), x1 = 0.9
  mass density: 83.22 ± 0.42 kg/m3
563.15 K, 4893 kPa, Fluid (supercritical or subcritical phases), x1 = 0.2
  mass density: 91.24 ± 0.46 kg/m3
563.15 K, 5140 kPa, Fluid (supercritical or subcritical phases), x1 = 0.8
  mass density: 106.2 ± 0.54 kg/m3
563.15 K, 5522 kPa, Fluid (supercritical or subcritical phases), x1 = 0.9
  mass density: 123.11 ± 0.62 kg/m3
563.15 K, 5594 kPa, Fluid (supercritical or subcritical phases), x1 = 0.2
  mass density: 114.13 ± 0.58 kg/m3
563.15 K, 5876 kPa, Fluid (supercritical or subcritical phases), x1 = 0.9
  mass density: 133.86 ± 0.68 kg/m3
563.15 K, 6362 kPa, Fluid (supercritical or subcritical phases), x1 = 0.8
  mass density: 140.03 ± 0.71 kg/m3
563.15 K, 6504 kPa, Fluid (supercritical or subcritical phases), x1 = 0.2
  mass density: 150.05 ± 0.77 kg/m3
563.15 K, 6690 kPa, Fluid (supercritical or subcritical phases), x1 = 0.9
  mass density: 163.64 ± 0.83 kg/m3
563.15 K, 6728 kPa, Fluid (supercritical or subcritical phases), x1 = 0.8
  mass density: 155.74 ± 0.79 kg/m3
563.15 K, 6993 kPa, Fluid (supercritical or subcritical phases), x1 = 0.2
  mass density: 175.27 ± 0.9 kg/m3
563.15 K, 7120 kPa, Fluid (supercritical or subcritical phases), x1 = 0.8
  mass density: 169.45 ± 0.86 kg/m3
563.15 K, 7244 kPa, Fluid (supercritical or subcritical phases), x1 = 0.2
  mass density: 189.26 ± 0.98 kg/m3
563.15 K, 7275 kPa, Fluid (supercritical or subcritical phases), x1 = 0.8
  mass density: 175.68 ± 0.9 kg/m3
563.15 K, 7389 kPa, Fluid (supercritical or subcritical phases), x1 = 0.8
  mass density: 180.47 ± 0.92 kg/m3
563.15 K, 7397 kPa, Fluid (supercritical or subcritical phases), x1 = 0.9
  mass density: 189.08 ± 0.96 kg/m3
563.15 K, 7718 kPa, Fluid (supercritical or subcritical phases), x1 = 0.2
  mass density: 219.66 ± 1.1 kg/m3
563.15 K, 7728 kPa, Fluid (supercritical or subcritical phases), x1 = 0.8
  mass density: 192.78 ± 0.98 kg/m3
563.15 K, 7738 kPa, Fluid (supercritical or subcritical phases), x1 = 0.9
  mass density: 201.98 ± 1 kg/m3
563.15 K, 8148 kPa, Fluid (supercritical or subcritical phases), x1 = 0.2
  mass density: 244.99 ± 1.3 kg/m3
563.15 K, 8285 kPa, Fluid (supercritical or subcritical phases), x1 = 0.9
  mass density: 220.25 ± 1.1 kg/m3
563.15 K, 8310 kPa, Fluid (supercritical or subcritical phases), x1 = 0.8
  mass density: 213.43 ± 1.1 kg/m3
563.15 K, 8376 kPa, Fluid (supercritical or subcritical phases), x1 = 0.2
  mass density: 258.68 ± 1.3 kg/m3
563.15 K, 8439 kPa, Fluid (supercritical or subcritical phases), x1 = 0.2
  mass density: 262.38 ± 1.3 kg/m3
563.15 K, 8483 kPa, Fluid (supercritical or subcritical phases), x1 = 0.8
  mass density: 219.19 ± 1.1 kg/m3
563.15 K, 8609 kPa, Fluid (supercritical or subcritical phases), x1 = 0.2
  mass density: 271.82 ± 1.4 kg/m3
563.15 K, 8640 kPa, Fluid (supercritical or subcritical phases), x1 = 0.9
  mass density: 232.6 ± 1.2 kg/m3
563.15 K, 8748 kPa, Fluid (supercritical or subcritical phases), x1 = 0.9
  mass density: 236.06 ± 1.2 kg/m3
563.15 K, 8876 kPa, Fluid (supercritical or subcritical phases), x1 = 0.9
  mass density: 240.45 ± 1.2 kg/m3
563.15 K, 8904 kPa, Fluid (supercritical or subcritical phases), x1 = 0.8
  mass density: 234.24 ± 1.2 kg/m3
563.15 K, 8945 kPa, Fluid (supercritical or subcritical phases), x1 = 0.2
  mass density: 289.96 ± 1.5 kg/m3
563.15 K, 8965 kPa, Fluid (supercritical or subcritical phases), x1 = 0.9
  mass density: 243.76 ± 1.2 kg/m3
563.15 K, 9207 kPa, Fluid (supercritical or subcritical phases), x1 = 0.8
  mass density: 244.86 ± 1.2 kg/m3
563.15 K, 9294 kPa, Fluid (supercritical or subcritical phases), x1 = 0.2
  mass density: 306.21 ± 1.6 kg/m3
563.15 K, 9393 kPa, Fluid (supercritical or subcritical phases), x1 = 0.2
  mass density: 310.43 ± 1.6 kg/m3
563.15 K, 9613 kPa, Fluid (supercritical or subcritical phases), x1 = 0.2
  mass density: 318.13 ± 1.6 kg/m3
563.15 K, 9648 kPa, Fluid (supercritical or subcritical phases), x1 = 0.8
  mass density: 258.06 ± 1.3 kg/m3
563.15 K, 10165 kPa, Fluid (supercritical or subcritical phases), x1 = 0.8
  mass density: 271.99 ± 1.4 kg/m3
563.15 K, 10334 kPa, Fluid (supercritical or subcritical phases), x1 = 0.2
  mass density: 340.56 ± 1.7 kg/m3
563.15 K, 10363 kPa, Fluid (supercritical or subcritical phases), x1 = 0.9
  mass density: 281.45 ± 1.4 kg/m3
563.15 K, 10433 kPa, Fluid (supercritical or subcritical phases), x1 = 0.2
  mass density: 343.35 ± 1.7 kg/m3
563.15 K, 10875 kPa, Fluid (supercritical or subcritical phases), x1 = 0.8
  mass density: 287.81 ± 1.4 kg/m3
563.15 K, 11127 kPa, Fluid (supercritical or subcritical phases), x1 = 0.9
  mass density: 301.08 ± 1.5 kg/m3
563.15 K, 11345 kPa, Fluid (supercritical or subcritical phases), x1 = 0.8
  mass density: 298.6 ± 1.5 kg/m3
563.15 K, 11776 kPa, Fluid (supercritical or subcritical phases), x1 = 0.9
  mass density: 311.7 ± 1.6 kg/m3
563.15 K, 11942 kPa, Fluid (supercritical or subcritical phases), x1 = 0.2
  mass density: 377.85 ± 1.9 kg/m3
563.15 K, 12196 kPa, Fluid (supercritical or subcritical phases), x1 = 0.2
  mass density: 382.64 ± 1.9 kg/m3
563.15 K, 12285 kPa, Fluid (supercritical or subcritical phases), x1 = 0.8
  mass density: 314.73 ± 1.6 kg/m3
563.15 K, 12687 kPa, Fluid (supercritical or subcritical phases), x1 = 0.2
  mass density: 390.46 ± 2 kg/m3
563.15 K, 13176 kPa, Fluid (supercritical or subcritical phases), x1 = 0.9
  mass density: 333.36 ± 1.7 kg/m3
563.15 K, 13452 kPa, Fluid (supercritical or subcritical phases), x1 = 0.8
  mass density: 333.18 ± 1.7 kg/m3
563.15 K, 14255 kPa, Fluid (supercritical or subcritical phases), x1 = 0.8
  mass density: 344.68 ± 1.7 kg/m3
563.15 K, 14845 kPa, Fluid (supercritical or subcritical phases), x1 = 0.2
  mass density: 417.82 ± 2.1 kg/m3
